16 compounds from patent US8546608B2, “Proteasome inhibitors and methods of using the same” (Cephalon, Inc., priority 2003, dated 2013) can be followed below.

Experiment [1] has as its target T1, 20S Human Erythrocyte Proteasome (HEP) (Homo sapiens, UniProt P20618+P28074).
T1 construct: 20S Human Erythrocyte Proteasome (HEP), purchased from Immatics Biotechnologies Inc; purchased Immatics Biotechnologies Inc., Tübingen, Germany; host or cells: human erythrocytes (natural source)
As to the kind of experiment: Chymotrypsin-like activity of 20S Human Erythrocyte Proteasome (HEP), IC50 determination. In kind it is biochemical. Conditions: assay of Example C, inhibition of HEP. The procedure:
Assay for Chymotrypsin-like Activity of 20S Human Erythrocyte Proteasome (HEP)
Proteasome chymotrypsin-like activity of compounds of the invention was assayed according to the following procedure.
In 96-well microtiter plates, 20S Human Erythrocyte Proteasome (HEP), purchased from Immatics Biotechnologies Inc., Tübingen, Germany was plated at 0.2 μg/mL (about 0.6 nM catalytic sites) in 0.04% SDS 20 mM Tris buffer. A fluorimetric substrate Suc-LLVY-AMC (succinyl-Leu-Leu-Val-Tyr-7-amido-4-methylcoumarin), purchased from Sigma Inc., St. Louis, Mo., USA was added to a final concentration of 100 μM from a stock solution of 10 mM in dimethylsulfoxide. Reaction volumes were 100 μl per well. […] Proteasome activity was determined under conditions in which substrate hydrolysis increased linearly with time and the change in fluorescence signal was proportional to the concentration of free AMC.
Determination of IC50 Values for HEP and α-Chymotrypsin Inhibitors
Inhibition of the chymotrypsin-like activity of HEP and of bovine α-chymotrypsin was determined by incubating the enzyme with various concentrations of putative inhibitors for 15 minutes at 37° C. (or room temperature for α-chymotrypsin) prior to the addition of substrate. Each experimental condition was evaluated in triplicate, and replicate experiments were performed for the inhibitors described herein.

Experiment [2] addresses T2, proteasome in Molt-4 cells (human leukemia) (Homo sapiens, UniProt P20618+P28074).
T2 sequence (P28074 60-263): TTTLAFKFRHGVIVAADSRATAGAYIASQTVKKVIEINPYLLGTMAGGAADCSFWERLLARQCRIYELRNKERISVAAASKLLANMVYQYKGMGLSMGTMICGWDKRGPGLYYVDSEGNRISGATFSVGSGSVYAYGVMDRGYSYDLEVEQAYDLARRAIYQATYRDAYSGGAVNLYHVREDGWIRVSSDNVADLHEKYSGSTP
T2 sequence (P20618 29-241): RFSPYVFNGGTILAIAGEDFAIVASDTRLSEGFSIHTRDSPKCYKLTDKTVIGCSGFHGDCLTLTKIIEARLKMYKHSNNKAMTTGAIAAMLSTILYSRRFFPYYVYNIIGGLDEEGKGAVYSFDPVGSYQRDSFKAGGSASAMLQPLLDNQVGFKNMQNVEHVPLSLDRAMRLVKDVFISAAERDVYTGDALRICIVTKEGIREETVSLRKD
Format: cell-based. Conditions: assay of Example E, inhibition of MOLT4; read-out: MOLT4 (EC50). The method, then:
Cellular Assay for Chymotrypsin-like activity of Proteasome in Molt-4 Cell Line
The chymotrypsin-like activity of proteasome in Molt-4 cells (human leukemia) was assayed according to the following procedure. A brief description of the method was published previously (Harding et al., J. Immunol., 1995, 155, 1767).
Molt-4 cells were washed and resuspended in HEPES-buffered Saline (5.4 mM KCl, 120 mM NaCl, 25 mM Glucose, 1.5 mM MgSO4, 1 mM Na pyruvate, 20 mM Hepes) and plated in 96-well microtiter white plates to a final concentration of 6×10^6 cells/mL. Then various 5× proteasome inhibitor concentrations (or diluted DMSO for controls), prepared from 250×DMSO solutions by diluting 50-fold using HEPES-buffered saline, were added to the plate to a final 1× concentration. After 15 minutes incubation at 37° C., a fluorimetric cell permeable substrate (MeOSuc-FLF-AFC) (methoxysuccinyl-Phe-Leu-Phe-7-amido-4-trifluoromethylcoumarin) purchased from Enzyme Systems Products, catalogue number AFC-88, was added to each well at a final concentration of 25 μM from a stock solution of 20 mM in DMSO. Reaction volumes were 100 μl per well.
The concentration of free AFC was monitored every 1.5 min for 30 min ([…]) on a Polastar Optima, BMG Labtechnologies microplate reader, using an excitation wavelength of 390 nm and emission wavelength of 520 nm. Proteasome activity was determined under conditions in which substrate hydrolysis increased linearly with time and the change in fluorescent signal was proportional to the concentration of free AFC.
Determination of EC50 Values for Proteasome Inhibitors in MOLT-4 Cell Line
Inhibition of chymotrypsin-like activity of proteasome in Molt-4 cells was determined by incubating cells with various concentrations of putative inhibitors for 15 minutes at 37° C. prior to the addition of substrate. Each experimental condition was evaluated in triplicate, and replicate experiments were performed for the inhibitors described herein.

One may read the IC50 as the concentration needed to halve the response being measured. Usually EC50 stands for the concentration that produces a half-maximal response.

Turning to `CC(C)C[C@H](NC(=O)[C@H](CCCNC(=N)N[N+](=O)[O-])NC(=O)CC1C=CCC1)B1O[C@@H]2C[C@@H]3C[C@@H](C3(C)C)[C@]2(C)O1` (mixture of isomers) [D.3.59], in experiment [1], the IC50 was less than 10 nM. Further, the EC50 in experiment [2] was 200 to 2000 nM.

For `CC(C)C[C@H](NC(=O)[C@H](CCCNC(=N)N[N+](=O)[O-])NC(=O)C(C)c1ccccc1)B(O)O` (mixture of isomers) [D.7.4, Boronic acid, [(1R)-1-[[(2S)-5-[[imino(nitroamino)methyl]amino]-2[((2RS)-2-phenylpropanoyl)amino]-1-oxopentyl]amino]-3-methylbutyl]], the IC50 in experiment [1] is less than 10 nM. Also, the EC50 in experiment [2] is greater than 10000 nM.

In turn, `CC(C)C[C@H](NC(=O)[C@H](CCCNC(=N)N[N+](=O)[O-])NC(=O)C1CCN(C(=O)OC(C)(C)C)CC1)B(O)O` (racemic) [D.7.7, Boronic acid, [(1R)-1-[[(2S)-5-[[imino(nitroamino)methyl]amino]-2-[[(4RS)-1-[(1,1-dimethylethoxy)carbonyl]piperidine-4-carbonyl]amino]-1-oxopentyl]amino]-3-methylbutyl]] yielded an IC50 in experiment [1] of less than 10 nM. In experiment [2], the EC50 is greater than 10000 nM.

`CC(C)C[C@H](NC(=O)[C@H](CCCNC(=N)N[N+](=O)[O-])NC(=O)C(CCCCCCCCC#N)C1CCCC1)B(O)O` (mixture of isomers) [E.1.19, Boronic acid, [(1R)-1-[[(2S)-5-[[imino(nitroamino)methyl]amino]-2-[((RS)-10-cyano-2-cyclopentydecanoyl)amino]-1-oxopentyl]amino]-3-methylbutyl]] showed an IC50 in experiment [1] of less than 10 nM. The concentration for a half-maximal effect (EC50) in experiment [2] lay in the range of 200 to 2000 nM.

`CCCCC(CC)CCC(=O)N[C@@H](CCCNC(=N)N[N+](=O)[O-])C(=O)N[C@@H](CC(C)C)B(O)O` (mixture of isomers) [E.2.23, Boronic acid, [(1R)-1-[[(2S)-5-[[imino(nitroamino)methyl]amino]-2-[((RS)-4-ethyloctanoyl)amino]-1-oxopentyl]amino]-3-methylbutyl]] displayed an IC50 in experiment [1] of less than 10 nM. Moreover, the EC50 in experiment [2] was in the range of 200 to 2000 nM.

In turn, `CCC(C)C(=O)N[C@@H](CCCNC(=N)N[N+](=O)[O-])C(=O)N[C@@H](CC(C)C)B(O)O` (mixture of isomers) [E.2.35, Boronic acid, [(1R)-1-[[(2S)-5-[[immo(nitroamino)methyl]amino]-2-[((RS)-2-methylbutanoyl)amino]-1-oxopentyl]amino]-3-methylbutyl]] gave a half-inhibitory concentration (IC50) in experiment [1] of less than 10 nM. In addition, the EC50 in experiment [2] is greater than 10000 nM.

Consider `CCCCC(C)CCC(=O)N[C@@H](CCCNC(=N)N[N+](=O)[O-])C(=O)N[C@@H](CC(C)C)B(O)O` (mixture of isomers) [E.2.39, Boronic acid, [(1R)-1-[[(2S)-5-[[imino(nitroamino)methyl]amino]-2-[((RS)-4-methyloctanoyl)amino]-1-oxopentyl]amino]-3-methylbutyl]], for which the IC50 in experiment [1] was less than 10 nM. In experiment [2], the EC50 is 200 to 2000 nM.

For the compound `CCCCC(C(=O)N[C@@H](CCCNC(=N)N[N+](=O)[O-])C(=O)N[C@@H](CC(C)C)B(O)O)C1CCCC1` (mixture of isomers) [E.2.59, Boronic acid, [(1R)-1-[[(2S)-5-[[imino(nitroamino)methyl]amino]-2-[[(RS)-2-cyclopentylhexanoyl]amino]-1-oxopentyl]amino]-3-methylbutyl]], the IC50 in experiment [1] is less than 10 nM. For the same compound, in experiment [2], the EC50 is 2000 to 10000 nM.

Regarding `CC(C)C[C@H](NC(=O)[C@H](CCCNC(=N)N[N+](=O)[O-])NC(=O)C(C)c1ccc(Cl)cc1)B(O)O` (mixture of isomers) [E.2.76, Boronic acid, [(1R)-1-[[(2S)-5-[[imino(nitroamino)methyl]amino]-2-[[(RS)-2-(4-chlorophenyl)propanoyl]amino]-1-oxopcntyl]amino]-3-methylbutyl]], the IC50 in experiment [1] was less than 10 nM. In experiment [2], the EC50 was in the range of 2000 to 10000 nM.

For the compound `CC(C)C[C@H](NC(=O)[C@H](CCCNC(=N)N[N+](=O)[O-])NC(=O)C1CCCCN1C(=O)OC(C)(C)C)B(O)O` (mixture of isomers) [E.2.81, Boronic acid, [(1R)-1-[[(2S)-5-[[imino(nitroamino)methyl]amino]-2-[[(2RS)-1-[(1,1-dimethylethoxy)carbonyl]piperidine-2-carbonyl]amino]-1-oxopentyl]amino]-3-methylbutyl]], the IC50 in experiment [1] was less than 100 nM. In experiment [2], the EC50 was 2000 to 10000 nM.

`CC(C)C[C@H](NC(=O)[C@H](CCCNC(=N)N[N+](=O)[O-])NC(=O)c1ccc2ccccc2c1)B1O[C@@H]2C[C@@H]3C[C@@H](C3(C)C)[C@]2(C)O1` [D.1.1, Naphthalen-2-carboxamide,N-[(1S)-1-[[[(1R)-1-[(3aS,4S,6S,7aR)-hexahydro-3a,5,5-trimethyl-4,6-methano-1,3,2-benzodioxaborol-2-yl]-3-methylbutyl]amino]carbonyl]-4-[[imino(nitroamino)methyl]amino]butyl]]: the IC50 in experiment [1] was less than 10 nM. In experiment [2], the EC50 was less than 200 nM.

Consider `CC(C)C[C@H](NC(=O)[C@H](CCCNC(=N)N[N+](=O)[O-])NC(=O)c1cnccn1)B1O[C@@H]2C[C@@H]3C[C@@H](C3(C)C)[C@]2(C)O1` [D.1.2], for which the IC50 in experiment [1] was less than 100 nM. Also, the concentration for a half-maximal effect (EC50) in experiment [2] is 200 to 2000 nM.

In experiment [1], `CC(C)C[C@H](NC(=O)[C@H](CCCNC(=N)N[N+](=O)[O-])NC(=O)CCN1C(=O)c2ccccc2C1=O)B1O[C@@H]2C[C@@H]3C[C@@H](C3(C)C)[C@]2(C)O1` [D.1.3, 3-(1,3-Dioxo-1,3-dihydro-isoindol-2-yl)-propanamide,N-[(1S)-1-[[[(1R)-1-[(3aS,4S,6S,7aR)-hexahydro-3a,5,5-trimethyl-4,6-methano-1,3,2-benzodioxaborol-2-yl]-3-methylbutyl]amino]carbonyl]-4-[[imino(nitroamino)methyl]amino]butyl]] came in with an IC50 of less than 10 nM. Further, the EC50 in experiment [2] fell in the range of 200 to 2000 nM.

`CCCCc1ccc(C(=O)N[C@@H](CCCNC(=N)N[N+](=O)[O-])C(=O)N[C@@H](CC(C)C)B2O[C@@H]3C[C@@H]4C[C@@H](C4(C)C)[C@]3(C)O2)cc1` [D.1.4, 4-Butylbenzamide,N-[(1S)-1-[[[(1R)-1-[(3aS,4S,6S,7aR)-hexahydro-3a,5,5-trimethyl-4,6-methano-1,3,2-benzodioxaborol-2-yl]-3-methylbutyl]amino]carbonyl]-4-[[imino(nitroamino)methyl]amino]butyl]] showed an IC50 in experiment [1] of less than 10 nM. Moreover, the EC50 in experiment [2] was less than 200 nM.

In experiment [1], `CC(C)C[C@H](NC(=O)[C@H](CCCNC(=N)N[N+](=O)[O-])NC(=O)c1cccc(NC(=O)OC(C)(C)C)c1)B1O[C@@H]2C[C@@H]3C[C@@H](C3(C)C)[C@]2(C)O1` [D.1.5, 3-[(1,1-dimethylethoxy)carbonylamino]benzamide, N-[(1S)-1-[[[(1R)-1-[(3aS,4S,6S,7aR)-hexahydro-3a,5,5-trimethyl-4,6-methano-1,3,2-benzodioxaborol-2-yl]-3-methylbutyl]amino]carbonyl]-4-[[imino(nitroamino)methyl]amino]butyl]-] yielded an IC50 of less than 10 nM. Moreover, the EC50 in experiment [2] lay within 200 to 2000 nM.

Compound `COCCOCC(=O)N[C@@H](CCCNC(=N)N[N+](=O)[O-])C(=O)N[C@@H](CC(C)C)B1O[C@@H]2C[C@@H]3C[C@@H](C3(C)C)[C@]2(C)O1` [D.1.6] yielded an IC50 in experiment [1] of less than 100 nM. The concentration giving a half-maximal response (EC50) in experiment [2] lay in the range of 200 to 2000 nM.
